“Also recorded” adds a separate entry of the source.
Tests used:
[1] = test system: TGase activity (tTGase and Factor XIIIa) in meniscal cells; assay: TGase activity in cultured knee meniscal cells (BP incorporation into N,N-dimethylcasein); format: cell-based, human; conditions: meniscal cells, 72 hrs, IL-1 or TNFα 10 ng/ml; NMMA 10 μM or A20 transfection
Protocol: Meniscal cells were maintained in DMEM high glucose and supplemented with 10% FCS, 1% L-glutamine, 100 units/ml Penicillin and 50 μg/ml Streptomycin (Omega Scientific, Tarzana, Calif.) and cultured at 37° C. with 5% CO2. In monolayer cell culture studies involving stimulation by TGFE[…] or IL-1, the cells were placed in DMEM high glucose containing 1% FCS, 1% L-glutamine, 100 units/ml Penicillin and 50 μg/ml Streptomycin. In all other studies, the cells were cultured in complete medium (as described above). Only primary or first passage meniscal cells were studied.
TGase activity was measured by modifications to a previously described method (35). Specifically, we coated 96 well ImmunoModule plates (Nunc, Rochester, N.Y.) with 200 μl of 20 mg/ml N,N-dimethylcasein for 1 hr at 23° C. The N,N-dimethylcasein was removed and nonspecific protein binding was blocked by adding 3% BSA in 100 mM Tris, pH 8.5, 150 mM NaCl, 0.05% Tween-20 (TBST) to each well for an additional 1 hr at 23° C. Then, aliquots of 5 μg of total cellular protein from meniscal or TC28 cells that had been lysed and sonicated (in 5 mM Tris HCl, 0.25 M sucrose, 0.2 mM MgSO4, 2 mM DTT, 0.4 mM PMSF, 0.4% Triton X100, pH 7.5), were added to the plate in triplicate. To measure TGase in extracts of whole menisci, 50 mg dry weight of tissue from the central zone of each medial meniscus was used as the source (after solubilization and sonication) for aliquots of 5 μg of soluble protein. Fifty μl of solution A (100 mM Tris, pH 8.5 and 20 mM CaCl2) was added to all samples for TGase assay, followed by the addition of 50 μl of solution B (100 mM Tris, pH 8.5, 40 mM DTT and freshly added 2 mM 5-(Biotinamido) pentylamine (BP)). The plates were incubated for 1 hr at 37° C. The wells were washed once with TBST containing 1 mM EDTA and then three times with TBST. One hundred μl of a 1:500 dilution of streptavidin-AP in 3% BSA/TBST was added to each well for 1 hr at 23° C. The wells were washed twice with TBST, and 200 μl of solution C (100 mM Tris, pH 9.8, mM NaCl, 5 mM MgCl2, 1 mg/ml of freshly added p-nitrophenylphosphate) was added to each well. Readings at OD410 were taken over 15 minutes. Purified guinea pig liver TGase (Sigma) was used to prepare a standard curve. TGase activity was designated as the amount of BP incorporated into casein (per μg cellular DNA, determined chromogenically following precipitation in perchlorate (28), or, where indicated, per μg protein, determined as previously described (28)).
To directly induce expression of each TGase in meniscal cells, 5×10^5 primary cells were plated in 60 mm dishes and allowed to adhere overnight. We modified (28) the manufacturer's protocol for the Lipofectamine Plus kit (Life Technologies, Grand Island, N.Y.). To optimize the transfection of meniscal cells, we added 2.0 ml of serum-free DMEM/F12 containing 0.00015% digitonin to washed cells and incubated for 3 min at 23° C. Then, media was removed, and cells transfected at 37° C. for 7 hrs, followed by removal of the media and addition of complete DMEM high glucose medium. Transfection of each TGase into TC28 cells was done by the same procedure, with the exception that the digitonin permeabilization step was omitted.

[2] = test system: NO release by meniscal cells; assay: NO release by cultured meniscal cells (Greiss reaction); format: cell-based, human; conditions: 72 hrs, IL-1 or TNFα 10 ng/ml, NMMA 10 μM or A20 transfection
Protocol: NO release by 3×10^5 meniscal cells, which were plated and stimulated with TNFα (10 ng/ml) or IL-1 (10 ng/ml), with or without 10 μM NMMA (FIG. 8A), for 72 hrs was studied. Conditioned media were collected and 50 μl aliquots analyzed for NO release using the Greiss Reaction, with results expressed as μmoles released per μg DNA. […] After 72 hrs of incubation with TNFα or IL-1, the conditioned media were collected from the cultured, transfected cells and analyzed in triplicate for NO release, as above. Data pooled from 4 normal donors studied in triplicate for FIGS. 8A and 8B. *p<0.05.
PPi was determined by differential adsorption on activated charcoal of UDP-D-[6-^3H] glucose (Amersham, Chicago, Ill.) from the reaction product 6-phospho [6-^3H] gluconate (28). Units of NTPPPH and AP were designated as micromoles of substrate hydrolyzed per hour (per μg DNA in each sample) (28). NO release by cultured meniscal cells was measured using the Greiss reaction (33). Concentrations or specific activities of PPi, NTPPPH, and AP were equalized for cellular DNA concentrations in each well.

For `CNC(=N)NCCC[C@H](N)C(=O)O` [NMMA, reference compound], the “Effect on IL-1 and TNFα-induced TGase activity” value [1] was “blocked the ability of both IL-1 and TNFα to induce TGase activity; also recorded: attenuated LL-1 and TNFα-induced TGase activity” and the “Effect on IL-1 and TNFα-induced NO release” value [2] was “attenuated IL-1 and TNFα-induced NO release; also recorded: suppresses IL-1 and TNFα-induced NO release”.

Reference: patent publication US20040109845A1, “Method for inhibiting articular cartilage matrix calcification” (priority 2001, published 2004)
